The values below come from ChEMBL document CHEMBL5143585, “Discovery and characterization of benzyloxy piperidine based dopamine 4 receptor antagonists” (Bioorg Med Chem Lett, 2022).

For orientation: inhibition means the share of the control response that was lost under treatment. Usually Ki stands for a dissociation constant, usually derived from enzyme kinetics or from competition with a known ligand. Usually IC50 stands for the point on the concentration scale where inhibition reaches its midpoint. A high value points to a need for much substance. In general, Vdss refers to a proportionality between amount in the body and measured concentration, not a real space. A higher Vdss goes with wide distribution into tissue. As a reminder, the AUC is concentration integrated over time. Read a high AUC as more exposure.

The target of series [1] is T1, D(3) dopamine receptor (Homo sapiens, UniProt P35462). Description: Displacement of [3H]N-methylspiperone from human D3 receptor expressed in HEK293 cell membrane at 10 uM by competitive inhibition based analysis. In kind it is cell membranes.
Series [2] addresses T2, D(1B) dopamine receptor (Homo sapiens, UniProt P21918). Description: Displacement of [3H]-SCH23390 from human D5 receptor expressed in HEK293 cell membrane by competitive inhibition based analysis. It is filed as cell membranes.
Series [3] addresses T2, D(1B) dopamine receptor. Briefly: Displacement of [3H]-SCH23390 from human D5 receptor expressed in HEK293 cell membrane at 10 uM by competitive inhibition based analysis. It is filed as cell membranes. For orientation: Loss of bound radioactivity is the signal in a displacement assay; it reports binding, not function.
For series [4], the target named is T3, D(1A) dopamine receptor (Homo sapiens, UniProt P21728). Briefly: Displacement of [3H]-SCH23390 from human D1 receptor expressed in HEK293 cell membrane at 10 uM by competitive inhibition based analysis. In kind it is cell membranes.
Series [5] addresses T4, D(4) dopamine receptor (Homo sapiens) (UniProt P21917).
T4 sequence (whole entry): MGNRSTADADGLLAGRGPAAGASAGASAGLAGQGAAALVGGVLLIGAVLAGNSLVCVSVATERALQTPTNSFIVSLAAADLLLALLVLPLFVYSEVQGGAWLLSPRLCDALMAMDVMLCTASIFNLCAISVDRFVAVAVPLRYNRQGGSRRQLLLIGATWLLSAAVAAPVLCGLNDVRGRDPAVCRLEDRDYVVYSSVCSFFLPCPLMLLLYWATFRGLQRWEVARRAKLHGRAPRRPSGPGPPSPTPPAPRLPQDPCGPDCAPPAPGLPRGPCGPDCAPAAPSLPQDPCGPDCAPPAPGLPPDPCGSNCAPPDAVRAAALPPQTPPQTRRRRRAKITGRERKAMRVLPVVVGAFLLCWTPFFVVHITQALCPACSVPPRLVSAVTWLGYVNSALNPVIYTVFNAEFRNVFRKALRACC
Description: Displacement of [3H]N-methylspiperone from human D4 receptor expressed in HEK293 cell membrane at 10 uM by competitive inhibition based analysis. In kind it is cell membranes.

Series [6] deals with D(2) dopamine receptor (Homo sapiens) (UniProt P14416). Description: Displacement of [3H]N-methylspiperone from human D2 receptor expressed in HEK293 cell membrane at 10 uM by competitive inhibition based analysis. In kind it is cell membranes.
Series [7] deals with T5, D(4) dopamine receptor (Homo sapiens, UniProt P21917).
T5 sequence (P21917 whole entry): T4 sequence (whole entry)
Briefly: Displacement of [3H]N-methylspiperone from human D4 receptor expressed in HEK293 cell membrane by competitive inhibition based analysis. In kind it is cell membranes.

Series [8] is described as follows: Ratio of drug level in rat brain to plasma at 0.25 mg/kg, iv measured on day 2 at 0.25 hrs post-dose. In kind it is ADME, organism-based. To be noted: time 2 day, read-out: BPR.
Series [9] is described as follows: Drug uptake in rat brain at 0.25 mg/kg, iv measured on day 2 at 0.25 hrs post-dose. It is filed as ADME, organism-based. To be noted: time 2 day, read-out: Drug uptake.
A short description of series [10]: Volume of distribution at steady state in rat at 0.25 mg/kg, iv measured for 24 hrs. In kind it is ADME, organism-based. The following applies: in vivo.
The nature of series [11]: Half-life in rat at 0.25 mg/kg, iv measured for 24 hrs. In kind it is ADME, organism-based. To be noted: in vivo.
Series [12] can be described thus: Initial plasma concentration in rat at 0.25 mg/kg, iv. In kind it is ADME, organism-based.
Series [13] can be described thus: AUC in rat at 0.25 mg/kg, iv measured for 24 hrs. In kind it is ADME, organism-based. Set-up: time 24 hrs, dose 0.25 mg/kg, route iv. The following applies: in vivo.
Series [14] in a line: Plasma concentration in rat at 0.25 mg/kg, iv measured on day 2 at 0.25 hrs post-dose. It is filed as ADME, organism-based. To be noted: time 2 day.
The nature of series [15]: Protein binding in mouse plasma assessed as unbound fraction. In kind it is ADME, cell-free.
Series [16] in a line: Protein binding in human plasma assessed as unbound fraction. In kind it is ADME, cell-free.
Series [17] is described as follows: Stability of the compound in mouse plasma. It is filed as ADME, cell-free.
The nature of series [18]: Intrinsic clearance in human liver microsomes. It is filed as ADME, Microsome. To be noted: read-out: CLH. (In general: Liver microsomes are a subcellular fraction often used to study metabolism.)
Series [19] deals with T1, D(3) dopamine receptor. Briefly: Displacement of [3H]N-methylspiperone from human D3 receptor expressed in HEK293 cell membrane by competitive inhibition based analysis. In kind it is cell membranes.
The target in series [20] is T3, D(1A) dopamine receptor. Briefly: Displacement of [3H]-SCH23390 from human D1 receptor expressed in HEK293 cell membrane by competitive inhibition based analysis. It is filed as cell membranes.

T2 sequence (P21918 whole entry): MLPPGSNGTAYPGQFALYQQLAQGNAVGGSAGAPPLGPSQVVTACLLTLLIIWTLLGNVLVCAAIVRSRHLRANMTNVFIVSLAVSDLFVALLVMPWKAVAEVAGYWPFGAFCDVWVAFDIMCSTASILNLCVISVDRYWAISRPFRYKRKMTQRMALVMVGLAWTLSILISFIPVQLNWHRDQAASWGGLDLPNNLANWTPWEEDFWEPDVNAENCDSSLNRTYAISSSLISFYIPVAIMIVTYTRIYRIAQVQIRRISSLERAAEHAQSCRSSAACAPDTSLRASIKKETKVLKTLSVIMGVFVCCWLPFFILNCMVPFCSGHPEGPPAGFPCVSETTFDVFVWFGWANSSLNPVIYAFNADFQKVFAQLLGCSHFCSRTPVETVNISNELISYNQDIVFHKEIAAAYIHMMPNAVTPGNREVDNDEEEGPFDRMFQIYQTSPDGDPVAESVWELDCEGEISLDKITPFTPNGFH
Chain of D(2) dopamine receptor (Homo sapiens) (P14416 whole entry): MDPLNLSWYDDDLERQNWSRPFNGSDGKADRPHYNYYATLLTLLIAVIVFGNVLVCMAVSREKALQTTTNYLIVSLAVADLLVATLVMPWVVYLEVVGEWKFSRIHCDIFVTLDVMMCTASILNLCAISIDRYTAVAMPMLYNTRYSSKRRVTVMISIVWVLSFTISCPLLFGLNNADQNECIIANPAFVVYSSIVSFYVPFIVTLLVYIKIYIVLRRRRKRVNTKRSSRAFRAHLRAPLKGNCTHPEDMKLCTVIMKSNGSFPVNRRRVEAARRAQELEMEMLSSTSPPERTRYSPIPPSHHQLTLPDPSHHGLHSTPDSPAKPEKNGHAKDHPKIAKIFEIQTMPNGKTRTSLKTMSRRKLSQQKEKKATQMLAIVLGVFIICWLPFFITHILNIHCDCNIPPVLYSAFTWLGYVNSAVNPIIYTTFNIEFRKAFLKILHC
T1 sequence (P35462 whole entry): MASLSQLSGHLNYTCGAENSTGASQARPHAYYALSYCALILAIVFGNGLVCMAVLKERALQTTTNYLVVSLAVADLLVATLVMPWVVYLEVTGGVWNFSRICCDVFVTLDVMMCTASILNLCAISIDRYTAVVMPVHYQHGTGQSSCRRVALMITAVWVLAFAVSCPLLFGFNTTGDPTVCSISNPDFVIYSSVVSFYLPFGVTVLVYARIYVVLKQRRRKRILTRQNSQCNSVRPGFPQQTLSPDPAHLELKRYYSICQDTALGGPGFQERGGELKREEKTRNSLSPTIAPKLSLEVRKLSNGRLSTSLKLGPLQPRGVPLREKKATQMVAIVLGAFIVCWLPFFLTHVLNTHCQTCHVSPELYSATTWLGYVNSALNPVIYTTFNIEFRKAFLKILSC
T3 sequence (P21728 whole entry): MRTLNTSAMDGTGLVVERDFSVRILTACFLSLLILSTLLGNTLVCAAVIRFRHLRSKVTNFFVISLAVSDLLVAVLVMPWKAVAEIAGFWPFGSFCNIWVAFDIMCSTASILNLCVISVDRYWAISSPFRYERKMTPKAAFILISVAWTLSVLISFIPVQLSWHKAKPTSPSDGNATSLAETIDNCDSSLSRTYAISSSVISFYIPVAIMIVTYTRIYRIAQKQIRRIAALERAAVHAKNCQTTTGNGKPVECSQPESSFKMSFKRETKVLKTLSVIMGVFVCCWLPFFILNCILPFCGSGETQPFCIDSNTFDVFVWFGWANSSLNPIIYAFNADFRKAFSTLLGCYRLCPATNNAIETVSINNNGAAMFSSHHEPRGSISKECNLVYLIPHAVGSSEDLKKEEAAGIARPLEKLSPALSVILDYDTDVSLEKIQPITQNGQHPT

As for `Cc1cc(CO[C@H]2CCCN(c3ccc(Cl)cc3)C2)ccc1F`, the inhibition was below 50% in series [1]; 66% in series [3] (filed as antagonist); below 50% in series [4]; 4.7% in series [5]; below 50% in series [6]. For the same compound, in series [2], the Ki was above 10000 nM.
Take `Cn1ncc2cc(CN3CCC(OCc4ccc(F)c(F)c4)CC3)ccc21`: the inhibition in [1], in series [3], in series [4] and in series [6] was below 50% in each case. In series [7], this compound showed an IC50 of 275 nM. In series [7], this compound yielded a Ki of 276 nM. For the same compound, the Kp at 48 h in series [8] came out at 11.6. The concentration at 48 h in series [9] was found to be 355 ng/g; in [14] it was 30.6 ng/mL. The Vdss in [10] was 12.9 L/kg. In addition, in [11], the t1/2 is 1.4 h. Moreover, in series [12] (in vivo, iv, 0.25 mg/kg), the C0 is 32.5 ng/mL. The same compound yielded an AUC in [13] of 112 ng·h/mL. Also, the Fu in [15] is 16.6%; in [16], 3.6%.
Take `Fc1cc(COC2CCN(Cc3cn4ccccc4n3)CC2)ccc1Cl`: the inhibition in series [1] was below 50%; in series [3] (filed as antagonist) it was 57%; in series [4], below 50%; in series [6], below 50%. The compound further gave an IC50 in series [7] of 135 nM. The Ki in series [7] is 134 nM; in [2], above 10000 nM. Besides, in [8], the Kp at 48 h worked out at 15.5. Further, the concentration at 48 h in series [9] amounted to 453 ng/g; in series [14] it was 29.9 ng/mL. In [10], this compound displayed a Vdss of 5.1 L/kg. The same compound returned a t1/2 in series [11] of 0.6 h. In series [12] (in vivo, iv, 0.25 mg/kg), the C0 is 52.2 ng/mL. Moreover, the AUC in series [13] was determined as 125 ng·h/mL. Further, the Fu is on record as 22.4% in series [15] and 1.8% in series [16].
Regarding `Cc1cc(NC(=O)CN2CCC(OCc3ccc(F)c(F)c3)CC2)ccc1F`, the inhibition in [1], in series [3], in series [4] and in series [6] was below 50% in each case. For the same compound, the IC50 in [7] was 120 nM. Besides, the inhibition constant (Ki) in [7] came out at 121 nM. Also, the Stability result in series [17] was “Unstable”. Also, in series [16], the Fu came out at 0.5%.
In [7], `COc1ccc(CN2CCO[C@H](COc3ccccc3)C2)cc1F` gave an IC50 of 5.01 nM and a Ki of 5.8 nM. Moreover, the CLint scaled in series [18] is 71.9 mL/min/kg. In series [15], the Fu is 3.7%. For the same compound, the inhibition in [6] was below 50%.
For the compound `Fc1cc(COC2CCN(Cc3ccc4[nH]cnc4c3)CC2)ccc1Cl`, the inhibition in series [1], in [3], in [4] and in [6] was below 50% throughout. In addition, the IC50 in series [7] was 1510 nM. The same compound displayed a Ki in [7] of 1520 nM. For the same compound, the Kp at 48 h in series [8] was determined as 9.9. The concentration at 48 h amounted to 139 ng/g in series [9] and 14.1 ng/mL in [14]. Also, in series [10], the Vdss turned out to be 13.6 L/kg. The t1/2 in series [11] is 1.1 h. This compound came in with a C0 in series [12] (in vivo, iv, 0.25 mg/kg) of 23.5 ng/mL. Also, the AUC in [13] turned out to be 79.9 ng·h/mL. In addition, the Fu is listed as 17.1% in series [15] and 7.7% in [16].
`Cc1c(Cl)cccc1NC(=O)CN1CCC(OCc2ccc(F)c(F)c2)CC1`: the inhibition in [1] (filed as antagonist) is 67%; in series [3], below 50%; in series [4] it was below 50%; in series [6], below 50%. In [7], this compound gave a half-inhibitory concentration (IC50) of 302 nM. The Ki in [7] was found to be 299 nM; in [19], 2460 nM. The Kp at 48 h in [8] was 2.9. The concentration at 48 h in [9] was found to be 134 ng/g; in series [14], 45.8 ng/mL. This compound also gave a Vdss in [10] of 5.5 L/kg. In [11], the t1/2 came out at 4.4 h. Further, the C0 in series [12] (in vivo, iv, 0.25 mg/kg) was determined as 5.5 ng/mL. The compound also gave an AUC in [13] of 747 ng·h/mL. Also, the Fu in [15] amounted to 1.5%; in series [16], 0.3%.
`FC(F)(F)c1cccc(COC2CCN(Cc3cc4ccc(Cl)cc4[nH]3)CC2)c1`: the inhibition is below 50% in series [1], below 50% in series [3], 55% in series [4] (filed as antagonist) and below 50% in series [6]. Moreover, the IC50 in series [7] is 209 nM. Besides, the Ki in [7] came out at 211 nM; in series [20], 1190 nM. In addition, the Fu in [15] and in [16] was 0.1% each time.
For `Fc1ccc(COC2CCN(Cc3cc4ccc(Cl)cc4[nH]3)CC2)cc1F`, the inhibition in [1] (filed as antagonist) was 73%; in series [3] (filed as antagonist) it was 64%; in series [4] it was below 50%; in series [6] it was below 50%. The IC50 in series [7] was 148 nM. The Ki in series [7] is 149 nM; in series [19], 965 nM; in series [2] it was 3990 nM. Moreover, the Kp at 48 h in series [8] was found to be 28.9. Further, the concentration at 48 h in [9] came out at 562 ng/g; in series [14], 19.4 ng/mL. Further, the t1/2 in series [11] is 1.8 h. Further, in series [12] (plasma, read-out: C0), the C0 came to 12.6 ng/mL. Moreover, the AUC in series [13] amounted to 126 ng·h/mL. In addition, the Fu in series [15] was 0.4%; in series [16], below 0.3%.
